Assay results from patent US20130143825A1, “COMPOUNDS FOR USE IN THE TREATMENT OF DISEASES BASED ON THE EXPRESSION OF TOXIC TRANSCRIPTS” (UNIVERSITAT DE VALENCIA, priority 2010, published 2013).
Non-standard residues stand in square brackets, D forms with d. Residues, ends and D or L forms follow the SMILES beside them. No end group written: not given here.

How the values were obtained:
2-AP-(CUG)23 RNA = assay: 2-aminopurine fluorescence assay (hairpin opening); type: biochemical; settings: for destructuration of CUG23 probe, comparative 2-aminopurine assay: 100 μM
Protocol: Measurements of the fluorescence emitted (Y-axis), measured as relative fluorescence units (RFU), by 2-aminopurine in a (CUG)23 RNA (1 μM) in the presence of MblZF (0.1 μM, 1 μM, 2 μM and 5 μM) (A) or p10 (0.1 μM, 1 μM, 2 μM, 5 μM and 100 μM) (B), relative to the fluorescence emitted by the free RNA. p10 caused a 2.9-increase in the fluorescence of 2-AP at 100 μM, which indicates a change towards single-stranded. This effect was not observed when incubating the RNA with DMSO, or with the alanine scanning peptides with sequences: ppyawa and payawe (C).
In order to confirm whether said changes cause a loss of the hairpin loop structure, an experiment was performed using an RNA composed of 23 CUG repeats, wherein a guanine had been substituted with its analogue 2-aminopurine (2-AP-(CUG)23). When 2-AP is in a single-stranded environment, it emits fluorescence at 375 nm. […] However, upon increasing the concentration of p10 to 100 μM (RNA:peptide 1:100), the 2AP-(CUG)23 RNA underwent a conformational change, from double-stranded to single-stranded, with a 2.9-fold increase in the fluorescence emission of the molecule (FIG. 28B). In order to confirm the specificity of this effect, the same experiment was performed, incubating the alanine scanning peptides (payawe and ppyawa) with the 2-AP-(CUG)23 RNA at the same concentration as p10 (100 μM).
As may be observed in FIG. 29, in this example we use the 2-aminopurine assay in order to assay 4 peptides (p11, p5, p12 and p15) in addition to p10, obtained from the deconvolution of the combinatorial peptide library explained in this invention. […] The concentration used in all cases is 100 μM.

[1] = system: 103Y-Gal4/+;UAS-CTG(480)/+ flies; assay: Lethality phenotype in pupae caused by expression of 480 CTG under 103Y-Gal4 (females born); type: in vivo, Drosophila; parameters: key: —: - indicates that no females were born, in neither the control tubes and the treated tubes; settings: females born vs DMSO control
FAM-(CUG)23 RNA = assay: Fluorescence gel retardation assay with FAM-(CUG)23; type: binding; settings: peptide 2.5 mM, RNA 60 nM
Text: The changes on the RNA caused by p10 in the FP assay are small, probably due to the low molecular weight of the molecule (less than 900 Da). For this reason, it was decided to supplement the study with gel retardation experiments. These assays are based on the differences in electrophoretic mobility between stable protein-nucleic acid complexes and their components separately. Since the FAM-(CUG)23 RNA was available, it was decided to prepare a fluorescence gel retardation assay. After determining the optimal quantity of RNA for detection (60 nM; FIG. 21A), the binding between the latter and MblZF was studied. Said binding caused both a decrease in the intensity of the band corresponding to the free RNA in the gel and the appearance of a signal in the interior of the gel wells (bound RNA).
In order to determine whether p10 could bind to CUG RNA molecules, it was decided to perform a similar gel retardation experiment between the peptide and FAM-(CUG)23. p10 bound to the RNA, with part of the complex being retained in the well, as described for MblZF. […] This affinity decreased upon decreasing the size of the repeats (FAM-(CUG)4, FIG. 24C). […] This could be due either to a synergic effect between the protein and the peptide or to an additive effect if both should bind to different RNA sites.
In order to study the specificity of the binding observed between p10 and the CUG repeats, two experiments were performed. In the first place, the five hexapeptides generated during the alanine scanning were assayed. […] In the second place, we studied the effect of p10 on other RNA and DNA sequences, both double-stranded and single-stranded, fluorescently labelled with carboxyfluorescein (FAM) (FIG. 25C).

[2] = system: 103Y-Gal4/+;UAS-CTG(480)/+ flies; assay: Lethality phenotype in pupae caused by expression of 480 CTG under 103Y-Gal4 (females born); type: in vivo, Drosophila; settings: administered to larvae in the food; compared with p10
Protocol: The 120 vials that make up the chemical library were individually assayed on the lethality phenotype in pupae caused by the expression of 480 CTG under the control of 103Y-Gal4 at a concentration of 80 μM. […] Thus, for positions O1, O2, O3, O4, O5 and O6 of the hexapeptide, a total of six, three, six, four, two and seven active amino acids were obtained, respectively (FIG. 2A). In order to perform the deconvolution, 10 of these 28 amino acids were selected, on the basis of their degree of activity in the biological assay (FIG. 2A). Finally, of the possible combinations, 16 sequences were selected to perform the synthesis of the defined hexapeptides (FIG. 2B). The selection of these 16 peptides was based on redundancy criteria between the physical and chemical properties of active amino acids in similar positions.
At 250 μM, the activity of the peptide decreased, possibly due to a toxic effect of the peptide at higher concentrations.
In order to determine the contribution of each of the p10 residues to their activity on CTG(480), an alanine scanning experiment was performed. These experiments are based on substituting every amino acid of the peptide with alanine and keeping the rest. Alanine is a small amino acid and, in general, not very active; this is why it is used for this type of studies. Since each alanine substitution examines the contribution of an individual amino acid, this experiment makes it possible, on the one hand, to evaluate whether p10 is susceptible to optimisation (in the event that a substitution increases the efficacy of the molecule), or to determine which amino acids are important for its function (in the event that a substitution decreases the activity thereof). The sequence of p10 allows for 5 substitutions; for this reason, 5 new hexapeptides were synthesised which were assayed in relation to the lethality phenotype in 103Y-Gal4; UAS-CTG(480)/+ flies and commercial food.

CUG60 RNA = assay: Circular dichroism of CUG60 RNA; type: binding; settings: RNA 1 μM, p10 0.1-20 μM, MblZF 1 and 1.5 μM, ppyawa 0.5 and 1 μM, payawe 1 μM
Protocol: However, this effect was not reverted when the RNA was incubated jointly with MblZF and p10, regardless of the order of addition (C).
In order to study possible changes in the secondary structure of RNA induced by p10, in the first place we performed a circular dichroism (CD) experiment, using an RNA with unlabelled CUG repeats (CUG60). The circular dichroism of nucleic acids is caused by the stacking of the bases that make up the sequence thereof. Consequently, when a molecule binds to RNA, affecting the structure thereof, a change is detected in its CD spectrum. […] When we incubated the RNA with increasing concentrations of the peptide of SEQ ID NO: 10 (0.1 μM, 0.5 μM, 1 μM, 10 μM and 20 μM), a similar effect was observed (FIG. 27B). During the readings, the RNA was kept in the cuvette inside the dichrograph at 10° C. Throughout the 3 hours of each experiment, it was possible for the RNA to have been degraded; this would explain the decrease in the intensity of the signal observed. In order to rule out this possibility, the CD spectrum of CUG60 RNA was measured at times 0 and 3 h, having kept the CUG60 RNA at 10° C. at all times.

FVB wild strain mice = assay: Toxicity of p10 in mammals, intramuscular injection; type: in vivo
Protocol: In order to study the possible toxic effect of p10 in mammals and establishing the maximum tolerable dose for subsequent assays, the peptide was administered to mice from the FVB wild strain. Due to the low absorption of peptides by the intestinal walls, it was decided to perform intramuscular injections in the anterior tibial muscle of animals 4-5 weeks of age, using four different doses (0.5 μg, 1 μg, 10 μg and 100 μg), with a total of 6 mice per dose (3 females and 3 males). 4 weeks after the injection, the animals were sacrificed and a visual autopsy was performed, jointly with a histomorphological study of the muscle and a blood test (FIG. 31). As a control, animals injected with the same quantity of DMSO (0.2% for the 0.5-μg and 1-μg doses, and 2% for the 10-μg and 100-μg doses) were used.
However, the blood tests did show differences between the treated animals and the control. As a marker of renal activity, we measured the quantity of […], urea and creatinine in the blood. The creatine phosphokinase (CPK) enzyme was used as a marker of damage to the skeletal muscle and the heart, and alkaline phosphatase (AP), gamma-glutamyl transpeptidase (GGT) and glutamate pyruvate transaminase (GPT) were used as markers of hepatic damage. […] This could be due to the toxicity of DMSO or to the injection itself. […] Urea is the final result of protein metabolism. It is formed in the liver and eliminated in the urine. If the kidney is not functioning correctly, urea accumulates in the blood. GPT is an enzyme that is present in the liver at a high concentration and, to a lower extent, in the kidneys, the heart and the muscles. When there is an injury in these organs, the enzyme is released into the blood and appears high in tests. Moreover, it is worth noting that two of the mice treated with the 100-μg dose died approximately 11 days after the injection (p/i), which confirms the toxicity of p10 when it exceeds a threshold value. It was possible to extract blood from one of these two animals just before it died.

[3] = 100-μg dose, one mouse just before it died

Molecule: p5: defined hexapeptide obtained following deconvolution of the D-amino acid combinatorial library ([dC][dQ][dY][dA][dQ][dE])
- destructuration of CUG23 probe, comparative 2-aminopurine assay (2-AP-(CUG)23 RNA): significant levels of specificity and efficacy
- Treated born/Control born ([1]; 25 μM): 2.0

Molecule: p16: defined hexapeptide obtained following deconvolution of the D-amino acid combinatorial library ([dP][dQ][dY][dT][dW][dE])
- Treated born/Control born ([1]; 38.5 μM): 0.4

Molecule: p8: defined hexapeptide obtained following deconvolution of the D-amino acid combinatorial library ([dC][dQ][dY][dT][dW][dE])
- Treated born/Control born ([1]; 57 μM): 0.9

Molecule: p4: defined hexapeptide obtained following deconvolution of the D-amino acid combinatorial library ([dC][dP][dY][dT][dW][dE])
- Treated born/Control born ([1]; 62 μM): —

Molecule: ppyaae
- significant binding to FAM-(CUG)23 RNA (FAM-(CUG)23 RNA): None
- activity on lethality phenotype (number of females), alanine scanning [2]: loss of activity

Molecule: ppaawe
- significant binding to FAM-(CUG)23 RNA (FAM-(CUG)23 RNA): None
- activity on lethality phenotype (number of females), alanine scanning [2]: loss of activity

Molecule: p14: defined hexapeptide obtained following deconvolution of the D-amino acid combinatorial library ([dP][dQ][dY][dA][dW][dE])
- Treated born/Control born ([1]; 40 μM): 1.8

Molecule: payawe
- change of circular dichroism spectrum of CUG60 (CUG60 RNA): did not occur
- change of circular dichroism spectrum of CUG60 (CUG60 RNA; listed as p29.4): did not change the RNA spectrum
- increase in the fluorescence emission of 2-AP-(CUG)23 (2-AP-(CUG)23 RNA; peptide 100 μM, RNA 1 μM (1:100)): None of these peptides caused changes
- significant binding to FAM-(CUG)23 RNA (FAM-(CUG)23 RNA): None
- activity on lethality phenotype (number of females), alanine scanning [2]: loss of activity

Molecule: C[C@@H](NC(=O)[C@@H](Cc1ccc(O)cc1)NC(=O)[C@H]1CCCN1C(=O)[C@H]1CCCN1)C(=O)N[C@H](Cc1c[nH]c2ccccc12)C(=O)N[C@H](CCC(=O)O)C(=O)O [p10] (H-[dP][dP][dY][dA][dW][dE]-OH)
- visual autopsy and histological analysis of the muscles vs DMSO controls (FVB wild strain mice; 0.5, 1, 10, 100 μg i.m., 4 weeks after injection): did not reveal significant differences
- urea and GPT in the blood vs controls (FVB wild strain mice; 10-μg and 100-μg doses i.m.): even higher values of urea and GPT
- time of death after the injection (FVB wild strain mice; 100-μg dose): approximately 11 days
- mice that died (FVB wild strain mice; 100-μg dose, 6 mice per dose): two
- CPK in blood, times greater than the control with DMSO (FVB wild strain mice; [3]): 15 times
- CPK in blood, times greater than the upper limit of the standard values (FVB wild strain mice; [3]): 28 times
- urea, creatinine, CPK and GGT in the blood (FVB wild strain mice; [3]): extremely high values

Molecule: p6: defined hexapeptide obtained following deconvolution of the D-amino acid combinatorial library ([dC][dQ][dY][dA][dW][dE])
- Treated born/Control born ([1]; 25 μM): —

Molecule: p15: defined hexapeptide obtained following deconvolution of the D-amino acid combinatorial library ([dP][dQ][dY][dT][dQ][dE])
- destructuration of CUG23 probe, comparative 2-aminopurine assay (2-AP-(CUG)23 RNA): significant levels of specificity and efficacy
- Treated born/Control born ([1]; 40 μM): 0.5

Molecule: apyawe
- significant binding to FAM-(CUG)23 RNA (FAM-(CUG)23 RNA): None
- activity on lethality phenotype (number of females), alanine scanning [2]: loss of activity
